Assay results from ChEMBL document CHEMBL4725334, “Discovery of novel integrase-LEDGF/p75 allosteric inhibitors based on a benzene scaffold” (Bioorg Med Chem, 2020).

Key:
[1] = Cytotoxicity against human MT4 cells assessed as reduction in cell viability measured after 4 days by MTT assay; assay type: cell-based; settings: time 4 day
[2] = Binding affinity to LEDGF/p75 binding pocket of integrase in HIV-1 NL432 infected in human MT4 cells assessed as allosteric inhibition of IN-LEDGF/p75 interaction by measuring inhibition of virus-induced cytopathicity measured after 4 days by MTT assay; assay type: cell-based; settings: Human immunodeficiency virus 1, NL432, MT4, 96 h
[3] = Metabolic stability in human liver microsomes assessed as parent compound remaining at 0.5 uM incubated for 30 mins by LC-MS/MS analysis; assay type: ADME, Microsome; settings: read-out: Stabilty
[4] = Metabolic stability in rat liver microsomes assessed as parent compound remaining at 0.5 uM incubated for 30 mins by LC-MS/MS analysi; assay type: ADME, Microsome; settings: read-out: Stabilty
[5] = Total clearance in Sprague-Dawley rat at 0.5 mg/kg, iv and 1 mg/kg, po administered as cassette dosing measured for 24 hrs by LC-MS/MS analysis; assay type: ADME, organism-based; settings: in vivo
[6] = AUC in Sprague-Dawley rat at 0.5 mg/kg, iv measured for 24 hrs by LC-MS/MS analysis; assay type: ADME, organism-based; set-up: dose 0.5 mg/kg, time 24 hrs; settings: in vivo
[7] = Half-life in Sprague-Dawley rat at 0.5 mg/kg, iv and 1 mg/kg, po administered as cassette dosing measured for 24 hrs by LC-MS/MS analysis; assay type: ADME, organism-based; settings: in vivo
[8] = Oral bioavailability in Sprague-Dawley rat 1 mg/kg administered as cassette dosing measured for 24 hrs by LC-MS/MS analysis; assay type: ADME, organism-based; settings: in vivo

Compound	CC50 at 96 h [1]	EC50 [2]	further results
Cc1ccc(-c2c(C)c(-c3ccc(C)c(C)c3)c(C(OC(C)(C)C)C(=O)O)c(C)c2NC(=O)c2ccccc2)cc1C (centres undefined)	9100 nM	51 nM	
CC(=O)Nc1c(C)c(C(OC(C)(C)C)C(=O)O)c(-c2ccc(C)c(C)c2)c(C)c1-c1ccc(C)c(C)c1 (centres undefined)	19000 nM	19 nM	
CNC(=O)Nc1c(C)c(C(OC(C)(C)C)C(=O)O)c(-c2ccc(C)c(C)c2)c(C)c1-c1ccc(C)c(C)c1 (centres undefined)	20000 nM	77 nM	
Cc1ccc(-c2c(C)c(-c3ccc(C)c(C)c3)c(C(OC(C)(C)C)C(=O)O)c(C)c2NC(=O)Nc2ccccc2)cc1C (centres undefined)	8000 nM	29 nM	
Cc1ccc(-c2c(C)c(-c3ccc(C)c(C)c3)c(C(OC(C)(C)C)C(=O)O)c(C)c2NS(=O)(=O)c2ccccc2)cc1C (centres undefined)	11000 nM	33 nM	
Cc1ccc(-c2c(C)c(-c3ccc4c(c3)CCO4)c(C(OC(C)(C)C)C(=O)O)c(C)c2NS(C)(=O)=O)cc1C (centres undefined)	38000 nM	35 nM	
Cc1ccc(-c2c(C)c(-c3ccc(C)c(C)c3)c(C(OC(C)(C)C)C(=O)O)c(C)c2N)cc1C (centres undefined)	12000 nM	27 nM	
Cc1ccc(-c2c(C)c(-c3ccccc3)c(C(OC(C)(C)C)C(=O)O)c(C)c2NS(C)(=O)=O)cc1C (centres undefined)	> 50000 nM	34 nM	
CNc1c(C)c(C(OC(C)(C)C)C(=O)O)c(-c2ccc(C)c(C)c2)c(C)c1-c1ccc(C)c(C)c1 (centres undefined)	8800 nM	31 nM	
Cc1ccc(-c2c(C)c(-c3ccc4c(c3)NCCO4)c(C(OC(C)(C)C)C(=O)O)c(C)c2NS(C)(=O)=O)cc1C (centres undefined)	42000 nM	330 nM	
Cc1ccc(-c2c(C)c(-c3ccc4c(c3C)CCCO4)c(C(OC(C)(C)C)C(=O)O)c(C)c2NS(C)(=O)=O)cc1C (centres undefined)	24000 nM	3.9 nM	remaining at 0.5 h, 0.5 µM [3]: 59%; remaining at 0.5 h, 0.5 µM [4]: 61%; clearance [5]: 6.99 mL/min/kg; AUC at 24 h [6]: 1190 ng·h/mL; half-life [7]: 3.1 h; bioavailability [8]: 36%
Cc1ccc(-c2c(C)c(-c3ccc(Cl)cc3)c(C(OC(C)(C)C)C(=O)O)c(C)c2NS(C)(=O)=O)cc1C (centres undefined)	26000 nM	11 nM	
Cc1ccc(-c2c(C)c(-c3ccc4c(c3)CCCO4)c(C(OC(C)(C)C)C(=O)O)c(C)c2NS(C)(=O)=O)cc1C (centres undefined)	28000 nM	22 nM	
CCNC(=O)Nc1c(C)c(C(OC(C)(C)C)C(=O)O)c(-c2ccc(C)c(C)c2)c(C)c1-c1ccc(C)c(C)c1 (centres undefined)	15000 nM	37 nM	
Cc1ccc(-c2c(C)c(-c3ccc(Cl)c(F)c3)c(C(OC(C)(C)C)C(=O)O)c(C)c2NS(C)(=O)=O)cc1C (centres undefined)	22000 nM	26 nM	
Cc1ccc(-c2c(C)c(-c3ccc(C)c(C)c3)c(C(OC(C)(C)C)C(=O)O)c(C)c2NS(=O)(=O)C2CC2)cc1C (centres undefined)	11000 nM	29 nM	
Cc1ccc(-c2c(C)c(-c3ccc(C)c(C)c3)c(C(OC(C)(C)C)C(=O)O)c(C)c2NS(C)(=O)=O)cc1C (centres undefined)	15000 nM	11 nM	
CCC(=O)Nc1c(C)c(C(OC(C)(C)C)C(=O)O)c(-c2ccc(C)c(C)c2)c(C)c1-c1ccc(C)c(C)c1 (centres undefined)	15000 nM	19 nM	
Cc1ccc(-c2c(C)c(-c3ccc(C)c(C)c3)c(C(OC(C)(C)C)C(=O)O)c(C)c2NCc2ccccc2)cc1C (centres undefined)	4000 nM	480 nM	
Cc1ccc(-c2c(C)c(-c3ccc4c(c3)N(C)CCO4)c(C(OC(C)(C)C)C(=O)O)c(C)c2NS(C)(=O)=O)cc1C (centres undefined)	31000 nM	31 nM	
Cc1nc2ccccc2c(-c2ccc3c4c(ccnc24)CCO3)c1[C@H](OC(C)(C)C)C(=O)O [BI-224436]	> 50000 nM	56 nM	remaining at 0.5 h, 0.5 µM [3]: 98%; remaining at 0.5 h, 0.5 µM [4]: 100%; clearance [5]: 1.09 mL/min/kg; AUC at 24 h [6]: 7680 ng·h/mL; half-life [7]: 4.2 h; bioavailability [8]: 64%
